Common to all, as to type: binding
For data set [1], the system named is intact ZIKV particles. Kind of data set: Direct ELISA vs intact ZIKV particles. How it is done: Before biotin functionalization, peptides stock solution was reduced using trialkylphosphine (TCEP) from ThermoFisher Scientific (www.thermofisher.com) and after 1 h the gel was removed using TCEP gel spin separation columns (ThermoFisher Scientific). Then, 2-fold molar excess of EZ-Link™ Maleimide-PEG2-Biotin (ThermoFisher Scientific) was added to purified peptide solution and incubated for 1 h. […] Therefore, no further separation was carried out.
(§1) To optimize all parameters of the direct ELISA protocol, Pierce 96-Well Polystyrene Plates, (ThermoFisher Scientific) were coated overnight at 4° C. with different concentrations of intact virus particles (ZIKV or DENV). The intact virus particles were diluted using 100 mM NaHCO3, pH 9.6, and aliquots of 100 μL were dispensed into each well of the plate using a multichannel pipette. This buffer pH assured a strong hydrophobic binding interaction between polystyrene and virus particles.
(§2) Intact particles both ZIKV and DENV were provided by Dr. Watkins group (University of Miami, Dep. of Pathology). The samples were controlled and counted by focus forming assay and RT-PCR, the details were reported in a previous work (Magnani et al., 2017). The Intact particles of ZIKV were inactivated using gamma irradiation. Assay biohazardous steps were carried out according to standard safety procedures.
(§3) After coating the plates overnight, the intact virus particles were removed by washing five times with the washing buffer (PBST) 10 mM PBS pH 7.4, 0.1% Tween-20, using an automated plate washer (MultiWash+, Molecular Devices, Sunnyvale, Calif.). Then, the plates were blocked with 200 μL of blocking buffers while shaking at 300 rpm at room temperature. The blocking buffers used were: Pierce™ Protein-Free (PBS) Blocking Buffer (PF), Blocker™ BLOTTO in TBS, SuperBlock™ Blocking Buffer, Blocker™ BSA (1×) in PBS. All blocking buffer were from ThermoFisher Scientific.
(§4) After 2 h the blocking buffers were removed using the same washing procedure mentioned above. 100 μL-aliquots of several dilutions of peptides biotinylated in 10 mM PBS pH 7.4 were placed in each well and incubated for 2 h while shaking at 300 rpm at room temperature. After the incubation, the unreacted peptides were removed by using the plate washer with the same settings. Then, 100 μL-aliquots of streptavidin-HRP (ThermoFisher Scientific) at a concentration of 20 ng/mL were added into each well and incubated for 30 min at room temperature without shaking. After the incubation, excess streptavidin-HRP was removed and the wells were washed with the plate washer five times using the washing buffer. Finally, 100 μL-aliquots of the Ultra TMB-ELISA Substrate Solution (ThermoFisher Scientific) were added and after 10 min the reaction was stopped by adding 100 μL aliquots of the TMB stop solution (SeraCare). The emission (450 nm) was read using a microplate reader (Clariostar Optima; BMG Labtech, Ortenberg, Germany).
The corresponding blank signals in triplicates were obtained by using all reagents without peptides. The blank signal was then subtracted to the average absorbance values for triplicate wells of each test.
The eight clamp peptides and the four mono-arm peptides selected, were tested vs intact ZIKV particles by using a direct ELISA. The peptides were biotinylated by using the maleimide-PEG2-biotin reagent that reacts with the sulfhydryl group of the cysteine efficiently and specifically by forming a stable thioether bond. The antibody 4G2 hybridoma mouse IgG2a was used as the reference and employed in combination with an anti-mouse IgG conjugated to HRP.
All analytical parameters involved in the development of ELISA were optimized by using 96-well plates coated with triplicate 10-fold serial dilutions of intact ZIKV particles.
Thus, the peptide concentrations reported in Table 5 were used to estimate the dynamic range and the LOD of the assay by using 10-fold serial dilutions of intact ZIKV particles from 10^^1 to 10^^8 copies/mL. […]

In data set [2] the test system is intact DENV particles (DENV-1, -2 and -3). Kind of data set: Cross-reactivity direct ELISA vs DENV serotypes. Particulars: all DENV serotypes, 10^5 copies/mL coating. On the procedure: as §1, §2, §3, §4
The cross-reactivity among Flaviviruses is a key parameter to be tested for this assay. […]
A general note: In an ELISA, binding on a coated surface is turned into a signal by an enzyme label.

Data set [3] concerns intact ZIKV particles. Kind of data set: Direct ELISA matrix effect in urine and serum. The settings on record: urine 1:1, serum 1:10 diluted; 10^5 and 10^6 copies/mL ZIKV. On the procedure:
Usually, the presence of ZIKV in affected bodies is detected in biological fluids. Therefore, the analytical sensitivity of the selected peptides was tested in two biological matrices, namely, urine and serum. The matrix effect was investigated to understand how real biological fluids could modify the binding efficiency of the peptides.
FIG. 4 depicts the ELISA data using solutions of peptides with or without the urine and serum obtained coating clear 96-well plates with 10^^5 and 10^^6 copies/mL of intact ZIKV particles. Urine and serum were 1:1 and 1:10 diluted, respectively, with a concentrated peptide PBS solution (10 mM PBS, pH 7.4) to obtain a peptide final concentration of 0.5 μM for C3 and C6, 5 μM for C7 and 20 μM for mono-arm peptides (P2 and X1).

A value given as a limit tells only on which side of the number the result lay.

“C7: clamp peptide MDSPIK (22) - bridge GPGCCGPG (32) - KRNATP (26) (MDSPIKGPGCCGPGKRNATP; C7 Binds to Active Site 2; Bridge peptide; C3 Binds to Active Site 1)”: in data set [1] (LOD=SB+3×SDB, interpolated from calibration curve), the LOD is 3.7 log[ZIKV], copies/mL. Further, in data set [1] (delta absorbance 450 nm), the FPLR maximum is 0.95 ΔA and the FPLR minimum is given as 0.01 ΔA. For the same substance, the Long-term stability in data set [1] (dose-response performance of the assay) is listed as over 1 Month. In data set [1] (four-parameter logistic fit), the “FPLR C50” value is 5.8 log[ZIKV], copies/mL and the FPLR slope amounted to 5.3. For the same substance, the “dynamic range of dose-response curve (orders of magnitude)” value in data set [1] (in words) is “three-order of magnitude”. Moreover, in data set [1] (optimized peptide concentration of Table 5 (0.5-20 μM; 4G2 1 μg/ml)), the “FPLR Dynamic Range” value is 4-7 log[ZIKV], copies/mL. Besides, the “signal decrease DENV vs ZIKV” value in data set [2] is “around 70%”. Besides, in data set [3], the “ELISA performance in urine and serum” value is “best performance among the three clamp peptides”.

The values are drawn from patent US11830582B2, “Methods of designing novel antibody mimetics for use in detecting antigens and as therapeutic agents” (UNIVERSITY OF MIAMI, priority 2018, dated 2023).
